Experimental data from US12385839B2, “Use of protein in predicting drug properties” (priority 2021, dated 2025).
Where two headings read alike, the source gives them in different places.

Key:
[1] = target: T1, human serum albumin (HSA) (Homo sapiens, UniProt P02768); test: Circular dichroism spectrum, secondary structure (α-helix content) of HSA; settings: HSA 2×10^−6 M
Method in brief: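 CD spectra of HSA held at 2×10^−6 M with pesticide at (0-20)×10^−6 M, 1 mm path, after 2–5 min preheating. α-Helix content derived from mean residue ellipticity at 208 nm (585 residues).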

[2] = target: T1, human serum albumin (HSA); test: Fluorescence emission spectrum (quenching) of HSA with carbamate pesticides; type: binding; settings: for Kq / Ksv / n (number of binding sites) / Kd / Ka (binding constant): pH 7.4; for Kd: read-out: Ka (binding constant); for R (binding distance): Förster energy transfer; for fluorescence of HSA quenched by pesticide: titration of pesticide; for ΔH^0 / ΔS^0: Van't Hoff, 296-310 K
Method in brief: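 Fluorescence quenching of HSA by carbamate pesticides was measured. HSA was held at 5×10^−7 M and pesticide was titrated from (0-105)×10^−7 M. Samples were preheated for 3 minutes, excited at 280 nm with 15 nm slits, and emission was recorded from 300-500 nm. Inner-filter effects were corrected. Binding site number n came from log[(F0−F)/F]=log Ka+nlog[Q].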

[3] = cited from earlier work; for LD50: modelling table; for Toxicity: toxicity grade by LD50, trailing figure = number of pesticides in group

T1 sequence (P02768 25-609): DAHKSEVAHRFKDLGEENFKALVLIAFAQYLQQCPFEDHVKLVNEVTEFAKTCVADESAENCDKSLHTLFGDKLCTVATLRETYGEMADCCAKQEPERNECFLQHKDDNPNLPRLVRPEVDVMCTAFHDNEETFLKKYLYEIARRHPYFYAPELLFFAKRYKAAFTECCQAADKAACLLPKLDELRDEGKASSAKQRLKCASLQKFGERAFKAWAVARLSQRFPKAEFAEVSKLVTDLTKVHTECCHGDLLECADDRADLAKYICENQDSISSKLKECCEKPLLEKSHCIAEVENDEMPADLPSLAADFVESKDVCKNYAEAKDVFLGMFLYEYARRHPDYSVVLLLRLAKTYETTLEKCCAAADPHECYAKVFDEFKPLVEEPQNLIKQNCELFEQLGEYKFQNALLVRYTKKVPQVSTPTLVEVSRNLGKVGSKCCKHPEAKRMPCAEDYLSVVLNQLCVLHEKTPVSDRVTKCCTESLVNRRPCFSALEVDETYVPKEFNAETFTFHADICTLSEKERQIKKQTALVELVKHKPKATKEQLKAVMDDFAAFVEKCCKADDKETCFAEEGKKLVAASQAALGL

Compound: CNC(=O)Oc1cc(C)cc(C)c1 [XMC, 3,5-xylyl methylcarbamate]
- α-helix contents ([1]; 5:1 (Pesticide:HSA)): 55.392%
- α-helix contents ([1]; 10:1 (Pesticide:HSA)): 54.416%
- Ksv (37°) ([2]; 37°, modelling table): 48304.67460
- ΔG(37°) ([2]; 37°, modelling table): −22.81
- ΔG^0 ([2]; 296 K): -4.4097 kcal/mol
- Kq ([2]; 296 K): 4.145 ± 0.187 10^12 M^−1s^−1
- Ksv ([2]; 296 K): 4.145 ± 0.187 10^4 M^−1
- n (number of binding sites) ([2]; 296 K): 0.734 ± 0.005
- Kd ([2]; 296 K): 539 µM
- ΔG^0 ([2]; 303 K): -4.9309 kcal/mol
- Kq ([2]; 303 K): 4.362 ± 0.151 10^12 M^−1s^−1
- Ksv ([2]; 303 K): 4.362 ± 0.151 10^4 M^−1
- n (number of binding sites) ([2]; 303 K): 0.779 ± 0.012
- Kd ([2]; 303 K): 294 µM
- ΔG^0 ([2]; 310 K): -5.4522 kcal/mol
- R (binding distance) ([2]; 310 K): 2.033 nm
- Kq ([2]; 310 K): 4.830 ± 0.108 10^12 M^−1s^−1
- Ksv ([2]; 310 K): 4.830 ± 0.108 10^4 M^−1
- n (number of binding sites) ([2]; 310 K): 0.832 ± 0.006
- Kd ([2]; 310 K): 139 µM
- fluorescence of HSA quenched by pesticide ([2]; 310 K): quenched
- ΔH^0 [2]: 17.634 kcal/mol
- ΔS^0 [2]: 311.582 J · mol^−1 · K^−1
- Binding distance/r ([2]; modelling table): 2.033
- Number of binding sites/n ([2]; modelling table): 0.8317
- LD50 [3]: 245 mg/kg
- Toxicity [3]: Moderately

Compound: Trimethacarb
- α-helix contents ([1]; 5:1 (Pesticide:HSA)): 52.233%
- α-helix contents ([1]; 10:1 (Pesticide:HSA)): 48.283%
- Ka (37°) ([2]; 37°, modelling table): 1782
- Ksv (37°) ([2]; 37°, modelling table): 47778.50539
- ΔG(37°) ([2]; 37°, modelling table): −19.26
- ΔG^0 ([2]; 296 K): -4.0289 kcal/mol
- Ka (binding constant) ([2]; 296 K): (9.546 ± 0.118) × 10^2 M^−1
- Kq ([2]; 296 K): 3.043 ± 0.160 10^12 M^−1s^−1
- Ksv ([2]; 296 K): 3.043 ± 0.160 10^4 M^−1
- n (number of binding sites) ([2]; 296 K): 0.694 ± 0.002
- ΔG^0 ([2]; 303 K): -4.3162 kcal/mol
- Ka (binding constant) ([2]; 303 K): (1.268 ± 0.092) × 10^3 M^−1
- Kq ([2]; 303 K): 4.204 ± 0.100 10^12 M^−1s^−1
- Ksv ([2]; 303 K): 4.204 ± 0.100 10^4 M^−1
- n (number of binding sites) ([2]; 303 K): 0.696 ± 0.005
- ΔG^0 ([2]; 310 K): -4.6037 kcal/mol
- R (binding distance) ([2]; 310 K): 2.954 nm
- Ka (binding constant) ([2]; 310 K): (1.782 ± 0.036) × 10^3 M^−1
- Kq ([2]; 310 K): 4.778 ± 0.093 10^12 M^−1s^−1
- Ksv ([2]; 310 K): 4.778 ± 0.093 10^4 M^−1
- n (number of binding sites) ([2]; 310 K): 0.713 ± 0.001
- fluorescence of HSA quenched by pesticide ([2]; 310 K): quenched
- ΔH^0 [2]: 8.1233 kcal/mol
- ΔS^0 [2]: 171.775 J · mol^−1 · K^−1
- Binding distance/r ([2]; modelling table): 2.954
- Number of binding sites/n ([2]; modelling table): 0.713
- LD50 [3]: 178 mg/kg
- Toxicity [3]: Moderately
